The text below walks through data of patent US6472435B1, “Anti-tumor agents” (Astrazeneca AB, priority 1998, dated 2002).

Test [1] deals with spheroidal aggregates of EMT6 murine breast cancer cells. Nature of the test: Test (c): growth inhibition of spheroidal aggregates of EMT6 murine breast cancer cells. The test is classed as cell-based. The following applies: Mus musculus, 2 hours treatment, stasis of spheroid growth over 2-3 weeks, read-out: stasis ED50. On the procedure:
(c) An in vitro assay which determines the ability of a test compound to inhibit the growth in an oxygenated culture medium of spheroidal aggregates (˜400 microns in diameter) of EMT6 murine breast cancer cells. As the oxygen diffusion distance through tissue is approximately 120-150 microns, such spheroids have a chronically hypoxic central population of cells and a well oxygenated outer layer of cells. The multicellular spheroids were treated with test compounds for 2 hours as a well oxygenated suspension culture. The spheroids were subsequently washed free of test compound and selected spheroids were transferred to static culture so that the effect of treatment on volume growth could be measured. […]
EMT6 murine breast cells (obtained from P. R. Twentyman, MRC Oncology and Radiotherapeutics Unit, Cambridge, UK) were harvested from exponentially growing monolayer cultures and approximately 1×10^6 cells were used to inoculate a 500 ml spinner culture vessel containing Eagles minimal essential medium (200 ml; supplemented with 10% foetal calf serum, glutamate, non-essential amino acids, penicillin and streptomycin). […] The area of each spheroid was measured using an image analyser and the 24-well plates were transferred to a CO2 incubator at 37° C. The spheroids were then re-measured every 2-3 days for up to 21 days, with fresh culture medium (250 μl) being added to each well every 3 days. […]

Test [2] relates to T18 murine breast tumours. Nature of the test: Test (d): in vivo growth delay of T18 murine breast tumours in Balb/c mice. The following applies: single bolus dose of 20 mg/kg intraperitoneally. The source says: (d) An in vivo assay in a group of Balb/c mice which determines the ability of a test compound to delay the growth of T18 murine breast tumours. The detailed methodology was as follows:
T18 murine breast tumour tissue was routinely maintained by animal to animal passage. To prepare a batch of tumours for an experiment, tumour tissue was removed from several donor Balb/c mice and placed in saline. Outer tissue was removed and healthy looking regions of tumour were cut into approximately 1 mm^3 pieces and implanted subcutaneously by trocar into the left flanks of anaesthetised female Balb/c mice. After 2-3 weeks, most of the implants had grown to approximately 8 mm in diameter. The animals were placed randomly into groups of 6-7, rejecting any with very large, or small, tumours. Each test compound was dissolved in DMSO and diluted with Cremophor EL followed by saline, to give a 1:1:3 mixture of DMSO, Cremophor EL and saline. Each test compound was administered by the intraperitoneal route as a single bolus dose (0.1 ml per 10 g body weight of each animal). Control animals received vehicle alone. All mice were weighed daily and the dimensions (length and width) of each tumour were measured every 2-3 days using vernier calipers. […] Growth curves were constructed and the effect of treatment was assessed using a growth delay endpoint.

For the compound `CCCC1=C(C(C)(C)CC(=O)N(C)c2ccc(N(CCCl)CCCl)cc2)C(=O)C=C(C)C1=O` [Example 1, N-{4-[bis(2-chloroethyl)amino]phenyl}-3-(5-methyl-3-propyl-1,4-benzoquinon-2-yl)-3-methyl-N-methylbutyramide], the EC50 in test [1] was about 4 µM. Further, the growth delay entry in test [2] is reported as “approximately 9 days”.
